Values quoted from earlier work in patent US7704745B2 (priority 2001, dated 2010).

System: human hepatocyte and neuroblastoma cells
Details: cited from earlier work

SMILES | effect on hepatocyte and neuroblastoma cell metabolism
CCOP(=S)(OCC)Oc1ccc([N+](=O)[O-])cc1 [parathion] | opposite effects
CCOP(=O)(OCC)Oc1ccc([N+](=O)[O-])cc1 [paraoxon] | opposite effects
